In US4281121A, “1,3,4-Thiadiazole-2-carboxylic acid derivatives, process for making the same and fungicidal and nematocidal compositions containing same” (Schering Aktiengesellschaft, priority 1978, dated 1981):
Where two headings read alike, the source gives them in different places.

Columns and labels:
Pythium ultimum = assay: Threshold concentration test for use of the compounds against Pythium ultimum (infested soil, garden peas); assay type: in vivo; parameters: key to root evaluation (1-4): 4: white roots without fungous necrosis; 3: white roots, minor fungous necrosis; 2: brown roots, already more pronounced fungous necrosis; 1: heavy fungous necrosis, roots rotted; conditions: for root evaluation (1-4): 3 weeks; for number of sound peas: 20 grains per dish, 3 weeks at 20-24° C.
Description: Threshold concentration test for use of the compounds against Pythium ultimum
A 20% concentration of certain pulverulent active agents as listed below were mixed in uniform manner into a soil which had been heavily infested by Pythium ultimum. The thus treated soil was then placed into clay dishes of a capacity of 0.5 l earth. Without any intermediate time lapse 20 grain of garden peas (Pisum sativum L. convar. medullare Alef.) of the type "Wunder von Kelvedon" were then seeded into each of the clay dishes. After a cultivation period of three weeks at 20° to 24° C. in a hothouse the number of sound peas was determined and a root evaluation was carried out. The active agents amounts and results appear from the following table.
(§1) The root evaluation was carried out on a scale from 1 to 4 as follows: […]

Plasmopara viticola = assay: Prophylactic leaf treatment of grapevines in the hothouse against Plasmopara viticola; assay type: in vivo
Description: Effects of prophylactic leaf treatment of grapevines in the hothouse against Plasmopara viticola
Young grapevine plants having from 5 to 8 leaves were sprayed dripping wet with the concentrations of active agents stated in the table below. After drying of the spray deposit the leaves were sprayed with an aqueous suspension of sporangia of the fungus (about 20,000 per ml); the spraying was applied to the bottom side of the leaves. The plants were then immediately incubated in a hothouse at a temperature of 22° to 24° C. and at maximum water saturation in the atmosphere. Beginning with the second day the humidity of the air was reduced for 3 to 4 days to normal level (30 to 70% saturation) and was then maintained for another day on the level of full saturation. Subsequently, the percentage portion of the fungus infested surface of each leaf was noted and the average per treatment was calculated in order to determine the fungicidal activity. This was done on the basis of the following formula: [formula]
The active compounds were applied in the form of a 20% concentration spray powder.

[1] = system: Helminthosporium gramineum; assay: Seed treatment in open field tests for infestation by Helminthosporium gramineum (barley); assay type: in vivo; conditions: summer barley, about 3 months
Description: Seed treatment in open field tests for infestation by Helminthosporium gramineum
The active agents were used in the form of pulverulent compositions. After about 8 months in case of winter barley and after about 3 months in case of summer barley the infested plants were counted and the activity was calculated by the formula [formula]

Tilletia caries = assay: Treatment of oat seeds infested with Tilletia caries (spore germination); assay type: in vivo
Helminthosporium gram = conditions: about 5 weeks
Description: Treatment of barley seeds infested with Helminthosporium gram
After emergence, the plants were subjected to illumination for 12 hours per day. After about 5 weeks the infested plants were counted and the total number of plants for each test were also counted. The active agents tested were used as pulverulent compositions.

Fusarium avenaceum = assay: Threshold concentration test in case of Fusarium avenaceum (infested soil, garden peas); assay type: in vivo; conditions: for number of sound peas: 20 grains per dish, 18 days at 20-24° C.; for root evaluation (1-4): 18 days
Description: Threshold concentration test in case of Fusarium avenaceum
A 20% pulverulent active agent of the type further identified in the table below was mixed in uniform manner with a soil which had been heavily infested with Fusarium avenaceum. The thus treated soil was then placed into clay dishes of a capacity of 0.5 l of earth. Each dish was seeded without any intervening time with 20 grains of garden peas (Pisum sativum L. convar. medullare Alef.) of the type "Wunder von Kelvedon". After a cultivation time of 18 days at 20° to 24° C. in a hot house the number of sound peas was determined and a root evaluation was carried out. The active agents employed, the amounts and results appear from the following table.
as §1

Piricularia oryzae = assay type: in vivo; conditions: 5 days
[2] = concentration of active agent 0.025 (unit not given)
[3] = 50 g active agent/100 kg barley
[4] = concentration of active agent 0.001 (unit not given)
[5] = concentration of active agent 0.005 (unit not given)
[6] = 25 g active agent/100 kg barley
[7] = 100 g active agent/100 kg barley
[8] = concentration of active agent 0.1 (percentages)

Structure (SMILES)	root evaluation (1-4) (Pythium ultimum; 20 mg/l soil)	number of sound peas (Pythium ultimum; 20 mg/l soil)	root evaluation (1-4) (Pythium ultimum; 40 mg/l soil)	number of sound peas (Pythium ultimum; 40 mg/l soil)	root evaluation (1-4) (Pythium ultimum; 80 mg/l soil)	number of sound peas (Pythium ultimum; 80 mg/l soil)	% activity (Plasmopara viticola; [2])	% activity [1, 3]	% activity (Tilletia caries; 10 g active agent per 100 kg)	% activity (Tilletia caries; 20 g active agent per 100 kg)	% activity (Tilletia caries; 50 g active agent per 100 kg)	% activity (Helminthosporium gram; 10 g active agent per 100 kg)	% activity (Helminthosporium gram; 20 g active agent per 100 kg)	% activity (Helminthosporium gram; 50 g active agent per 100 kg)	% activity (Plasmopara viticola; [5])	further results
C=CCNC(=O)c1nnc([S+](C)[O-])s1 (stereo not shown) [5-methylsulfinyl-1,3,4-thiadiazole-2-carboxylic acid-allylamide]	4	20	4	19	4	18	90%	100%	99.2%	100%	100%	94%	99%	100%		
CCCCN(C)C(=O)c1nnc(S(=O)(=O)CC)s1 [5-ethylsulfonyl-1,3,4-thiadiazole-2-carboxylic acid-(N-butyl,N-methyl)-amide]							100%	96.9%	98%	100%	100%		100%	100%	100%	% activity (Plasmopara viticola; [4]): 100%; % activity [1, 6]: 94%; % activity [1, 7]: 99.5%
C[S+]([O-])c1nnc(C(=O)N2CCC2)s1 (stereo not shown) [5-methylsulfinyl-1,3,4-thiadiazole-2-carboxylic acid-N,N-trimethylenamide]	2	12	4	16	4	19	94%			96%	100%		95%	100%	93%	% activity (Plasmopara viticola; [4]): 86%
COCCNC(=O)c1nnc([S+](C)[O-])s1 (stereo not shown) [5-methylsulfinyl-1,3,4-thiadiazole-2-carboxylic acid-(2-methoxyethyl)-amide]							96%					75%	97%	100%		
C[S+]([O-])c1nnc(C(=O)NC2CC2)s1 (stereo not shown) [5-methylsulfinyl-1,3,4-thiadiazole-2-carboxylic acid-cyclopropylamide]	1	15	4	20	4	20	90%			98%	100%	72%	98%	99%	80%	
CCC[S+]([O-])c1nnc(C#N)s1 (stereo not shown) [5-propylsulfinyl-1,3,4-thiadiazole-2-carbonitrile]	1	9	4	16	4	18	100%	99.3%	99%	100%	100%		87%	99%	100%	number of sound peas (Fusarium avenaceum; 25 mg/l soil): 19; root evaluation (1-4) (Fusarium avenaceum; 25 mg/l soil): 4; number of sound peas (Fusarium avenaceum; 50 mg/l soil): 20; root evaluation (1-4) (Fusarium avenaceum; 50 mg/l soil): 4; number of sound peas (Fusarium avenaceum; 100 mg/l soil): 19; root evaluation (1-4) (Fusarium avenaceum; 100 mg/l soil): 4; % activity (Plasmopara viticola; [4]): 100%
CCCS(=O)(=O)c1nnc(C(=O)OCC)s1 [5-propylsulfonyl-1,3,4-thiadiazole-2-carboxylic acid-ethylester]																% activity (Piricularia oryzae; [8]): 93%
CCS(=O)(=O)c1nnc(C(=O)N2CCOCC2)s1 [5-ethylsulfonyl-1,3,4-thiadiazole-2-carboxylic acid-(N,N-3-oxapentamethyleneamide]								99.3%			100%	99%	100%	100%		
COCCCNC(=O)c1nnc(S(C)(=O)=O)s1 [5-methylsulfonyl-1,3,4-thiadiazole-2-carboxylic acid-(3-methoxypropyl)-amide]	1	9	4	20	4	19										% activity (Piricularia oryzae; [8]): 90%
CC(C)S(=O)(=O)c1nnc(C(N)=O)s1 [5-isopropylsulfonyl-1,3,4-thiadiazole-2-carboxamide]	4	17	4	18	4	19										% activity (Piricularia oryzae; [8]): 40%
CC[S+]([O-])c1nnc(C#N)s1 (stereo not shown) [5-ethylsulfinyl-1,3,4-thiadiazole-2-carbonitrile]	4	20	4	19	4	19	100%	100%	99.8%	100%	100%	98%	100%	100%	96%	number of sound peas (Fusarium avenaceum; 25 mg/l soil): 19; root evaluation (1-4) (Fusarium avenaceum; 25 mg/l soil): 4; number of sound peas (Fusarium avenaceum; 50 mg/l soil): 20; root evaluation (1-4) (Fusarium avenaceum; 50 mg/l soil): 4; number of sound peas (Fusarium avenaceum; 100 mg/l soil): 20; root evaluation (1-4) (Fusarium avenaceum; 100 mg/l soil): 4; % activity (Plasmopara viticola; [4]): 89%
CCCCS(=O)(=O)c1nnc(C#N)s1 [5-butylsulfonyl-1,3,4-thiadiazole-2-carbonitrile]							93%			95%	100%				91%	number of sound peas (Fusarium avenaceum; 25 mg/l soil): 18; root evaluation (1-4) (Fusarium avenaceum; 25 mg/l soil): 4; number of sound peas (Fusarium avenaceum; 50 mg/l soil): 20; root evaluation (1-4) (Fusarium avenaceum; 50 mg/l soil): 4; number of sound peas (Fusarium avenaceum; 100 mg/l soil): 20; root evaluation (1-4) (Fusarium avenaceum; 100 mg/l soil): 4
CCNC(=O)c1nnc(S(=O)(=O)CC)s1 [5-ethylsulfonyl-1,3,4-thiadiazole-2-carboxylic acid ethylamide]	4	15	4	16	4	16	98%	99.5%	99.3%	100%	100%		100%	100%		% activity [1, 6]: 98%; % activity [1, 7]: 100%
CCS(=O)(=O)c1nnc(C(=O)NC2CC2)s1 [5-ethylsulfonyl-1,3,4-thiadiazole-2-carboxylic acid-cyclopropylamide]									85%	100%	100%					% activity ([1]; 200 g active agent/100 kg barley): 100%
CN(CCC(N)CC(=O)NC1C=CC(n2ccc(N)nc2=O)OC1C(=O)O)C(=N)N (stereo not shown) [Blasticidin-S, reference compound]																% activity (Piricularia oryzae; concentration of active agent 0.02 (percentages)): 90%; % activity (Piricularia oryzae; [8]): 97%
CCC(C)S(=O)(=O)c1nnc(C(N)=O)s1 (stereo not shown) [5-sec.-butylsulfonyl-1,3,4-thiadiazole-2-carboxamide]								94%						97%		
